{"source": "ChEMBL document CHEMBL1201862", "about": "“PubChem BioAssay data set” (2004)", "key": {"[1]": {"biological_target": "T1, Methionyl-tRNA synthetase, putative (Trypanosoma brucei brucei, UniProt Q38C91)", "T1 sequence (Q38C91 whole entry)": "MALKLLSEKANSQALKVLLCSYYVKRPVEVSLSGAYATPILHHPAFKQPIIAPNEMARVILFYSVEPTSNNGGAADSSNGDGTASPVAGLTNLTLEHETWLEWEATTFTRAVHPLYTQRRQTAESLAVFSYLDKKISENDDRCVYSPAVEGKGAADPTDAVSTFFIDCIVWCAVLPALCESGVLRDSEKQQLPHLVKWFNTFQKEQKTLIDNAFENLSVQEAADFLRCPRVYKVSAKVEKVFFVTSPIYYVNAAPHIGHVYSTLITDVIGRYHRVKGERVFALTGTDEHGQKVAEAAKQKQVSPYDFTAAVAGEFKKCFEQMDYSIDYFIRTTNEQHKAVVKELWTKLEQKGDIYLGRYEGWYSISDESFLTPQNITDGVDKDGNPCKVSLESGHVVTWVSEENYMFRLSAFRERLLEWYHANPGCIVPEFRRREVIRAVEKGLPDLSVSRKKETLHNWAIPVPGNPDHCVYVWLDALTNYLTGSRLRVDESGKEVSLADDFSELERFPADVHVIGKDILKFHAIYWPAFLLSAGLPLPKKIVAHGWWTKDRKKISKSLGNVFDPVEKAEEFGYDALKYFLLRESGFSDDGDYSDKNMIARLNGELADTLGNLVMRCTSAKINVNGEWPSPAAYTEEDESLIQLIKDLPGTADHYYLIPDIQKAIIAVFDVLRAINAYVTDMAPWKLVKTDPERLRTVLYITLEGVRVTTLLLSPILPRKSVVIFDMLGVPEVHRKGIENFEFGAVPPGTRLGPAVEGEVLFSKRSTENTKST", "format": "functional, Trypanosoma brucei brucei strain 927/4 GUTat10.1"}, "[2]": {"biological_target": "T1, Methionyl-tRNA synthetase, putative", "format": "functional, Trypanosoma brucei brucei strain 927/4 GUTat10.1", "remark": "listed apart in the source"}, "[3]": {"test": "Counterscreen for inhibitors of Trypanosoma brucei methionyl tRNA synthetase (MetRS): Luminescence-based cell-based high throughput dose response assay to identify compounds that are cytotoxic to Jurkat human T lymphocyte cells.", "format": "functional"}, "[4]": {"test": "Late stage counterscreen for inhibitors of Trypanosoma brucei methionyl tRNA synthetase (MetRS): Luminescence-based cell-based high throughput dose response assay to identify compounds that are cytotoxic to Jurkat human T lymphocyte cells.", "format": "functional"}, "[5]": {"test": "inhibitors of PGC1a acetylation in cells, dose response, cell-based, cherry-picked samples (AID 720514);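 further: potency may reflect raised or lowered acetylation signal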", "format": "functional"}, "[6]": {"test": "cytotoxicity toward NIH3T3 fibroblasts, dose response, counter-screen, cell-based, ATP luminescence, mouse fibroblasts (AID 2010);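 further: cells exposed to compound for about 90 hours before reading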", "format": "functional"}, "[7]": {"biological_target": "COUP transcription factor 2 (Homo sapiens, UniProt P24468)", "test": "Luminescence-based cell-based high throughput dose response assay to identify inhibitors of COUP-TFII (NR2F2).", "format": "functional"}, "[8]": {"test": "inhibitors of intracellular T. cruzi replication, confirmation, NIH3T3 host cells, beta-gal luminescence (AID 2044);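 further: luminescent beta-galactosidase reporter signal from transgenic T. cruzi replicating inside host cells; inhibitors lower the luminescence signal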", "format": "functional, cell-based"}, "cells [9]": {"test": "cells"}, "INS1": {"tested_on": "INS1", "test": "beta cell apoptosis inhibitors, cytokine rescue, dose response, luminescence, retest (AID 449756);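 further: cell death triggered by IL-1 beta plus TNF-alpha plus IFN-gamma mixture; protective hits raise ATP signal compared with cytokine alone wells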", "format": "functional, cell-based", "settings": "Rattus norvegicus"}, "[10]": {"test": "cytotoxicity in OVCAR4 cells, dose response, cytotoxicity control for PAX8 inhibitor project, cell-based, plate reader, dry powder, SA11 (AID 743150)", "format": "functional", "settings": "OVCAR-4"}, "[11]": {"test": "cytotoxicity in COV434 cells, dose response, cytotoxicity control for PAX8 inhibitor project, cell-based, plate reader, dry powder, SA7 (AID 743145)", "format": "functional"}, "[12]": {"test": "cytotoxicity dependent on PAX8, dose response, cell-based, plate reader, dry powder (AID 743049)", "format": "functional"}, "[13]": {"test": "C. albicans growth with fluconazole, confirmation, fluorescence, retest (AID 2467)", "format": "functional, cell-based"}, "[14]": {"test": "cytotoxicity in OV-90 ovarian cancer cells, dose response, PAX8 inhibitor project, cell-based, plate reader, dry powder, SA8 (AID 743149)", "format": "functional"}, "[15]": {"test": "IGROV1 ovarian cancer cell cytotoxicity, dose response, PAX8 inhibitor project, plate reader, dry powder samples (AID 743043)", "format": "functional, cell-based", "settings": "IGROV-1"}, "Paired box protein Pax-8": {"biological_target": "Paired box protein Pax-8 (Homo sapiens, UniProt Q06710)", "sequence (Q06710 whole entry)": "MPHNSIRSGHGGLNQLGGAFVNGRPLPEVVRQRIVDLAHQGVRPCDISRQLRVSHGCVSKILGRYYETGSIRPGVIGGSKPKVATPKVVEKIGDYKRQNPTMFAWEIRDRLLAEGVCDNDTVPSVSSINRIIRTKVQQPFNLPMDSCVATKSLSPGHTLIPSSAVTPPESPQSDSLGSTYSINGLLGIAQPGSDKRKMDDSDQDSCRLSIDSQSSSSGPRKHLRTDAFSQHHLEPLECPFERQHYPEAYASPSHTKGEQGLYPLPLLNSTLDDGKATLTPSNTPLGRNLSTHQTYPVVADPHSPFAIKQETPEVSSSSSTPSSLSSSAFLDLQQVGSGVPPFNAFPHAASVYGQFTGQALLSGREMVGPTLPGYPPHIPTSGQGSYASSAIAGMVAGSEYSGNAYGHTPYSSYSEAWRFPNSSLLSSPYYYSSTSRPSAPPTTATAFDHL", "test": "inhibitors of PAX8-driven TPO luciferase reporter, dose response, RMG-I cells, cherry-pick (AID 687027);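 further: luciferase reporter driven by Pax8 target thyroperoxidase promoter measured by SteadyGlo luminescence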", "format": "functional, cell-based"}, "[16]": {"test": "NIH-3T3 fibroblast cytotoxicity, dose response, cytotoxicity control, cell-based, fluorescence, Alamar Blue, secondary assay (AID 2327);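 further: NIH-3T3 mouse fibroblasts cultured with fluconazole at 8 µg/mL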", "format": "functional"}, "[17]": {"test": "PAX2 cell-based inhibition, dose response, selectivity assay for PAX8 inhibitor project, plate reader, dry powder samples (AID 743048);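 further: HEK293 cells carrying a WT1 promoter luciferase reporter driven by expressed Pax2; potency is for inhibition of Pax2 driven reporter signal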", "format": "functional"}, "[18]": {"test": "NIH:OVCAR-3 ovarian cancer cell cytotoxicity, dose response, PAX8 inhibitor project, plate reader, dry powder samples (AID 743044)", "format": "functional, cell-based"}, "[19]": {"biological_target": "T2, Small ubiquitin-related modifier 1 (Homo sapiens, UniProt P63165)", "T2 sequence (P63165 whole entry)": "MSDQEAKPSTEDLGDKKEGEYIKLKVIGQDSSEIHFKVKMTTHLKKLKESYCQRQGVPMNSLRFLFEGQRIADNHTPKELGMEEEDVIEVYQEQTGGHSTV", "test": "inhibitors of SUMO1 partner interactions, dose response, biochemical, FRET (AID 624383)", "format": "functional", "settings": "read-out: IC50_Mean"}, "[20]": {"biological_target": "T3, Bifunctional protein GlmU (Mycobacterium tuberculosis, UniProt P9WMN3)", "T3 sequence (P9WMN3 whole entry)": "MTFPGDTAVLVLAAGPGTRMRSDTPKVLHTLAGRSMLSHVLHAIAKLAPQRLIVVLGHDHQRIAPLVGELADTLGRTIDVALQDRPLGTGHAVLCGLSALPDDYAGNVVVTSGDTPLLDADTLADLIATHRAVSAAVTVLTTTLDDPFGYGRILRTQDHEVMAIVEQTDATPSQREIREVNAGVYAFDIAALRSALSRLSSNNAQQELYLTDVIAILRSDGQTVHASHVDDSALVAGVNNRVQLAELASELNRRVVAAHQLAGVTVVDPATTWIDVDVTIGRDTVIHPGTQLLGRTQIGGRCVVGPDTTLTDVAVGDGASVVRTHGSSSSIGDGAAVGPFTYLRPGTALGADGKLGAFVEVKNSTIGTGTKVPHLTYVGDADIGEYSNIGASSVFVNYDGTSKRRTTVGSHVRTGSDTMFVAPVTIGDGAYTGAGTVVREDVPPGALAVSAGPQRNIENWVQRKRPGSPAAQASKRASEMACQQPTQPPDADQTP", "test": "Inhibitors of Mycobacterial Glucosamine-1-phosphate acetyl transferase (GlmU). Secondary screen.", "parameters": "species or system Mycobacterium tuberculosis H37Rv"}, "[21]": {"biological_target": "Apoptotic protease-activating factor 1 (Homo sapiens, UniProt O14727)", "sequence (O14727 whole entry)": "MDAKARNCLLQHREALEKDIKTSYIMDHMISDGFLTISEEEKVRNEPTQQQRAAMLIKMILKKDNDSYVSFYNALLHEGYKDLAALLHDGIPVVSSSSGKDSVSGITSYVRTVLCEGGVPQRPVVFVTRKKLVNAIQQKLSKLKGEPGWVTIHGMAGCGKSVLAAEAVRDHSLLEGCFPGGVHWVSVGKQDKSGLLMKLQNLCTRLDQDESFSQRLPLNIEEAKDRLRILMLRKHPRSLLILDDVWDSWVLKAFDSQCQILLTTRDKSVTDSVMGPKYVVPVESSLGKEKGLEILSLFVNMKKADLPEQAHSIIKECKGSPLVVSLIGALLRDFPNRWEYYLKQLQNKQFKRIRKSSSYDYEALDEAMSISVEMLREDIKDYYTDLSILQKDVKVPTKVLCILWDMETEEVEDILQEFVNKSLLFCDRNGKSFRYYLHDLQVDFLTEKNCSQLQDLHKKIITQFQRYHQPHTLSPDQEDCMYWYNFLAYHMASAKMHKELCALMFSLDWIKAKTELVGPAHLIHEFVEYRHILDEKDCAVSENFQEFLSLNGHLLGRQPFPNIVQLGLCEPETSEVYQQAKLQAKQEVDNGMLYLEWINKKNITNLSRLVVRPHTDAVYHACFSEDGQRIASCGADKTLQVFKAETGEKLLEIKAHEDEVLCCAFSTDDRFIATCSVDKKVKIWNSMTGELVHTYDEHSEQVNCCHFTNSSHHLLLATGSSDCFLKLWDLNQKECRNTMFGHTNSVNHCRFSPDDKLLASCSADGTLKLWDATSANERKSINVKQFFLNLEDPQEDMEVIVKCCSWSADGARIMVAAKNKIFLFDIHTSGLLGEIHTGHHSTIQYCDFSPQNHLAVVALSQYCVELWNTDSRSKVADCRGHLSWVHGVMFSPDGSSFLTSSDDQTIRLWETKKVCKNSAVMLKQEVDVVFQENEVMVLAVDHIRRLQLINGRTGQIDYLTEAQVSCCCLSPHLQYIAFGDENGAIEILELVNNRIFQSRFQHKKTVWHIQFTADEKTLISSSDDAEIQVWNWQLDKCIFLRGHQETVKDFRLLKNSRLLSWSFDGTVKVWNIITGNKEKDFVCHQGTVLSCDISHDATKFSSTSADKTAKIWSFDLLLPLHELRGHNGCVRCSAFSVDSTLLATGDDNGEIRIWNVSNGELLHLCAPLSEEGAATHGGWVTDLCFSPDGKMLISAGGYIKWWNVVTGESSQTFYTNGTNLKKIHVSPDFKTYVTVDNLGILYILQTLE", "test": "activation of Apaf-1 mediated apoptosis – fluorescent, uHTS hits, dose response (AID 588554)", "format": "functional"}, "[22]": {"biological_target": "1-phosphatidylinositol 4,5-bisphosphate phosphodiesterase beta-3 (Homo sapiens, UniProt Q01970)", "sequence (Q01970 whole entry)": "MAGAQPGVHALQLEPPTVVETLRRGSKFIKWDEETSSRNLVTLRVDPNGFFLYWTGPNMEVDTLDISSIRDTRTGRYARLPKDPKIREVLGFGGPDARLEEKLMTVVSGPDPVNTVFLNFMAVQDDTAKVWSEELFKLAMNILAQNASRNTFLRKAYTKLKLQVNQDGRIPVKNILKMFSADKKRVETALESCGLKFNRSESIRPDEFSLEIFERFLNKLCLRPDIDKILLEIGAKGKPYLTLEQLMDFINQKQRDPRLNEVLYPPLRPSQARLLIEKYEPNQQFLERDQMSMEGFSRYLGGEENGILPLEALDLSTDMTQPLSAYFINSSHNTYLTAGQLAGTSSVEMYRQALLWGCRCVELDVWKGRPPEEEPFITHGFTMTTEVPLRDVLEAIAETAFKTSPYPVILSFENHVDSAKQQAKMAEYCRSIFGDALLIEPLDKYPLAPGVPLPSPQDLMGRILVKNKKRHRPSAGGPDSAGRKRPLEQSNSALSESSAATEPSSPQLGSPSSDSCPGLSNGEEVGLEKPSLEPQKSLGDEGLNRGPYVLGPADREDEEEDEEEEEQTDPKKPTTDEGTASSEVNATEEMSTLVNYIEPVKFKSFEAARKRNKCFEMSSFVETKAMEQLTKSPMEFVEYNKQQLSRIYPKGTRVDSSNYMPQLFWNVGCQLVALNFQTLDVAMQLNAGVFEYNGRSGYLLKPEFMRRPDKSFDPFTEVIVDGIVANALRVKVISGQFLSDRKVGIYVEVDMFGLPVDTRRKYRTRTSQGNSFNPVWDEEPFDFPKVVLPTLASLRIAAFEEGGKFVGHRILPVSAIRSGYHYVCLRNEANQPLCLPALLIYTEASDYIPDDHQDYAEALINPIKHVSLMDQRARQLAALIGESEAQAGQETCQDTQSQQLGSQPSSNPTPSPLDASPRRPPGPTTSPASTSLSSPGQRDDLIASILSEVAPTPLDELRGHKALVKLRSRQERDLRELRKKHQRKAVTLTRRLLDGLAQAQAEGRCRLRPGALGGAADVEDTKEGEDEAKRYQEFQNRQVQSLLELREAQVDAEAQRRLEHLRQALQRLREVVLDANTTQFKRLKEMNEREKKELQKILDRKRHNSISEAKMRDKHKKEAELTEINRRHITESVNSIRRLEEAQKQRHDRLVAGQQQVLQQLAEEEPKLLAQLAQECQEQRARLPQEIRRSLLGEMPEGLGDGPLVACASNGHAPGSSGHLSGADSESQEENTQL", "test": "Fluorescence-based biochemical high throughput dose response assay to identify inhibitors of phospholipase C isozymes (PLC-B3)."}, "[23]": {"biological_target": "1-phosphatidylinositol 4,5-bisphosphate phosphodiesterase gamma-1 (Homo sapiens, UniProt P19174)", "sequence (P19174 whole entry)": "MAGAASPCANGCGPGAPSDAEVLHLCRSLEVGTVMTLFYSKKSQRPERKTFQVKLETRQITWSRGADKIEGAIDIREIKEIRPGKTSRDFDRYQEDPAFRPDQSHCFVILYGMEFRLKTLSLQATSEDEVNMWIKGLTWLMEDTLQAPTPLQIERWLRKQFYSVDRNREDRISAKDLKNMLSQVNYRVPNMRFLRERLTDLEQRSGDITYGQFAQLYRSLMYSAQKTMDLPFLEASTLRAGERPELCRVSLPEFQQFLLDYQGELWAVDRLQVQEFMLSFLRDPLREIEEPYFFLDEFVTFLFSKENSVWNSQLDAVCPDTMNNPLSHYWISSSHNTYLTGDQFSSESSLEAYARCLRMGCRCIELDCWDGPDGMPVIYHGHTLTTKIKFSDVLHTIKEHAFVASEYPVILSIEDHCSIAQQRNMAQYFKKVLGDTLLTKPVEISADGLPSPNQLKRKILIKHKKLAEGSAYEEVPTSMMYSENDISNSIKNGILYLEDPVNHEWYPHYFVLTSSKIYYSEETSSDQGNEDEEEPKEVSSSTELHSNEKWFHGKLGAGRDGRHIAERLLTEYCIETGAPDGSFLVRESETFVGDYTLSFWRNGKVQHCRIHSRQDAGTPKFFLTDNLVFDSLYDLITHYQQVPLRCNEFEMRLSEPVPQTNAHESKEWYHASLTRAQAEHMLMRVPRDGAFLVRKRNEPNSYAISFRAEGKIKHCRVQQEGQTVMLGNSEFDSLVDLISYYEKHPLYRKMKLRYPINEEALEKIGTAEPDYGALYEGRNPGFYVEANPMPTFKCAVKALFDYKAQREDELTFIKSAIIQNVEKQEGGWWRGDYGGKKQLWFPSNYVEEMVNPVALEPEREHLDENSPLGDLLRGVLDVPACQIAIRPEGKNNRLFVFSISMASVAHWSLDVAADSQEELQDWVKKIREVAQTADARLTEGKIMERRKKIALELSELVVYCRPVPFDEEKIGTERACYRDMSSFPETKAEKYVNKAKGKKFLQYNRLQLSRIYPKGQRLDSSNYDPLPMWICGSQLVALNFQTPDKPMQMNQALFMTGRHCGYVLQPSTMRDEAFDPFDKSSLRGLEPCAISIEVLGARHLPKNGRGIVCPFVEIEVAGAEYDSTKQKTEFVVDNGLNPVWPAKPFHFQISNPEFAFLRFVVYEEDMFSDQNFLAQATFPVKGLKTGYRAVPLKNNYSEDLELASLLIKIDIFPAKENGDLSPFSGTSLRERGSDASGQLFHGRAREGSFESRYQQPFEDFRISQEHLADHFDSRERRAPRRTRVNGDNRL", "test": "Counterscreen for inhibitors of phospholipase C isozymes (PLC-B3): Fluorescence-based biochemical high throughput dose response assay to identify inhibitors of phospholipase C isozymes (PLC-gamma1)."}, "[24]": {"biological_target": "T4, Dual specificity protein phosphatase 3 (Homo sapiens, UniProt P51452)", "T4 sequence (P51452 whole entry)": "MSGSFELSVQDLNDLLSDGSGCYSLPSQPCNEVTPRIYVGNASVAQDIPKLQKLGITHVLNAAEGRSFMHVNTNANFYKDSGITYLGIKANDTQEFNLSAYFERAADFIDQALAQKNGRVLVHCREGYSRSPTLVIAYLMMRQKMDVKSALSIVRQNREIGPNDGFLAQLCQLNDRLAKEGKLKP", "test": "VHR1 phosphatase inhibitors, biochemical (AID 1878)"}, "[25]": {"biological_target": "T2, Small ubiquitin-related modifier 1", "test": "inhibitors of SUMO1 peptide binding, dose response, biochemical, fluorescence polarization, uHTS hits (AID 624382)", "format": "functional", "settings": "read-out: IC50_Mean"}, "[26]": {"biological_target": "T4, Dual specificity protein phosphatase 3", "test": "VHR1 phosphatase inhibitors, primary screen, biochemical, absorbance, uHTS (AID 1654)"}, "[27]": {"biological_target": "Induced myeloid leukemia cell differentiation protein Mcl-1 (Homo sapiens, UniProt Q07820)", "sequence (Q07820 whole entry)": "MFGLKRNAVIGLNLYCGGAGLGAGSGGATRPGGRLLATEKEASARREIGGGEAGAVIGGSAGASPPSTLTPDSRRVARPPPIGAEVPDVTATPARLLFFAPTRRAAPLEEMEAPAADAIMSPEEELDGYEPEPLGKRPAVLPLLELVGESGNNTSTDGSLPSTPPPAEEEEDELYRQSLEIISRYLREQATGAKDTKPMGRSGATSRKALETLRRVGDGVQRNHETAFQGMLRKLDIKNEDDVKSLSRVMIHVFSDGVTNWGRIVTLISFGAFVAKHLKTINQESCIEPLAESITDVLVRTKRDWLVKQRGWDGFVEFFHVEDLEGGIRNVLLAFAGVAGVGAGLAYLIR", "format": "functional"}, "[28]": {"biological_target": "T5, Dual specificity protein phosphatase 6 (Rattus norvegicus, UniProt Q64346)", "T5 sequence (Q64346 whole entry)": "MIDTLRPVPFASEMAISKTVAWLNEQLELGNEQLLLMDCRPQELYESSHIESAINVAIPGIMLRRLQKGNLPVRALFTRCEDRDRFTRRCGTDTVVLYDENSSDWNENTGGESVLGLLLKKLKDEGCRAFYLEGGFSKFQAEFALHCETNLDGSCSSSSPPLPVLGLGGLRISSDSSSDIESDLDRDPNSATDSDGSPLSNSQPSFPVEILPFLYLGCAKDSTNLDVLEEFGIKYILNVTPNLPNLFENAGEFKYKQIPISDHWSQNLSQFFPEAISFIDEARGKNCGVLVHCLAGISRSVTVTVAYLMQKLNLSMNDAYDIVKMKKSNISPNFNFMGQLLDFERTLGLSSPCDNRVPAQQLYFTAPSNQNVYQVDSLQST", "test": "MKP-3 phosphatase inhibitors, primary screen, biochemical, rat enzyme, in vitro (AID 425)"}, "[29]": {"test": "inhibitors of firefly luciferase expression or activity, dose response, H4 neuroglioma cells, luminescence (AID 1990)", "format": "functional, cell-based"}, "cells [30]": {"test": "cells", "remark": "listed apart in the source"}, "[31]": {"test": "inhibitors of SNCA 5'UTR-driven reporter translation, confirmation, H4 neuroglioma cells, luminescence (AID 1988)", "format": "functional, cell-based"}, "[32]": {"test": "Luminescence Cell-Based Dose Response HTS to Identify Inhibitors of 5'UTR Stem-Loop Driven Prion Protein mRNA Translation in H4 Neuroglioblastoma Cells. [Related pubchem assays: 1827 (Project Summary), 1813 (Primary HTS)]", "format": "functional"}}, "note": "Calls of active or inactive are those of the source."}
{"smiles": "O=C(NCc1nc2ccccc2[nH]1)C1=C[C@@H](c2ccc(Br)cc2)C[C@@H](OCCCCO)O1", "values": [{"measurement": "IC50", "setting": "[1]", "value": "0.27 µM (active)"}, {"measurement": "IC50", "setting": "[2]", "value": "0.551 µM (active)"}, {"measurement": "IC50", "setting": "[3]", "value": "83.3 µM (inactive)"}, {"measurement": "IC50", "setting": "[4]", "value": "48.4 µM (inactive)"}]}
{"smiles": "CC(=O)Nc1ccc2c(CSc3nncs3)cc(=O)oc2c1", "values": [{"measurement": "AC50", "setting": "[5]", "value": "26.5 µM (active)"}]}
{"smiles": "Cc1ccc(-c2cc3cccc[n+]3cc2-c2ccc(C)cc2)cc1", "values": [{"measurement": "EC50", "setting": "[6]", "value": "> 60 µM (not active)"}, {"measurement": "IC50", "setting": "[7]", "value": "5.1 µM (active)"}, {"measurement": "EC50", "setting": "[8]", "value": "< 0.1 µM (active)"}, {"measurement": "EC50", "setting": "cells [9]", "value": "0.019 µM (active)"}, {"measurement": "AC50", "setting": "INS1", "value": "0.572 µM (active)"}]}
{"smiles": "CC(C)(C)c1nnc(NC(=O)CCS(=O)(=O)c2ccccc2)s1", "values": [{"measurement": "AC50", "setting": "[10]", "value": "4.22 µM (active)"}, {"measurement": "AC50", "setting": "[11]", "value": "> 100 µM (inactive)"}, {"measurement": "AC50", "setting": "[12]", "value": "25 µM (active)"}, {"measurement": "EC50", "setting": "[13]", "value": "1.09 µM (active)"}, {"measurement": "AC50", "setting": "[14]", "value": "> 100 µM (inactive)"}, {"measurement": "AC50", "setting": "[15]", "value": "50.7 µM (active)"}, {"measurement": "AC50", "setting": "Paired box protein Pax-8", "value": "4.6 µM (active)"}, {"measurement": "EC50", "setting": "[16]", "value": "> 150 µM (inactive)"}, {"measurement": "AC50", "setting": "[17]", "value": "> 52 µM (inactive)"}, {"measurement": "AC50", "setting": "[18]", "value": "48.2 µM (active)"}]}
{"smiles": "O=C(O)c1cccc(-c2ccc(/C=c3/sc4nc5ccccc5n4c3=O)o2)c1", "values": [{"measurement": "IC50", "setting": "[19]", "value": "8.7 µM (active)"}, {"measurement": "IC50", "setting": "[20]", "value": "101 µM (active)"}, {"measurement": "EC50", "setting": "[21]", "value": "9.48 µM (active)"}, {"measurement": "IC50", "setting": "[22]", "value": "> 122 µM (inactive)"}, {"measurement": "IC50", "setting": "[23]", "value": "> 122 µM (inactive)"}, {"measurement": "IC50", "setting": "[24]", "value": "2.27 µM (active)"}, {"measurement": "IC50", "setting": "[25]", "value": "> 66.6 µM (inactive)"}, {"measurement": "IC50", "setting": "[26]", "value": "4.98 µM (active)"}, {"measurement": "IC50", "setting": "[27]", "value": "1.74 µM (active)"}, {"measurement": "IC50", "setting": "[28]", "value": "118 µM (not active)"}]}
{"smiles": "CCOc1ccccc1/N=c1\\oc2cc(O)ccc2cc1C(=O)NCC1CCCO1", "note": "(centres undefined)", "values": [{"measurement": "EC50", "setting": "[29]", "value": "> 120 µM (not active)"}, {"measurement": "AC50", "setting": "cells [30]", "value": "> 70 µM (inactive)"}, {"measurement": "EC50", "setting": "[31]", "value": "> 120 µM (not active)"}, {"measurement": "EC50", "setting": "[32]", "value": "> 120 µM (not active)"}]}
